The values below come from US10479792B2, “Compounds” (GlaxoSmithKline Intellectual Property Development Limited, priority 2015, dated 2019).

One data set has as its system RnH9c2 cells. Briefly: Trypanosoma cruzi intracellular assay (Assay 2), host cell cytotoxicity. To be noted: rat, H9C2 cardiomyocytes infected with Trypanosoma cruzi, 72 h incubation, read-out: cytotoxicity against RnH9c2 cells, pEC50 (converted). In kind it is cell-based. The procedure: (§1) Compounds were dispensed into black 384-well assay plates (Greiner) by acoustic dispensing (LabCyte ECHO). For potency determinations, eleven-point, one in three dilution curves were generated, with a top concentration of 50 μM. H9C2 rat cardiomyocytes cells were dispensed in T225 tissue culture flasks and after 4 hours they were infected during 18 hours with T. cruzi trypomastigotes in the same T225 tissue culture flasks at a multiplicity of infection of 1. Next, any remaining free trypomastigotes were washed away with PBS and the infected H9C2 cells were harvested by trypsinisation. The infected H9C2 cells were then plated into 384-well plates containing the compounds to be tested, at 2500 cells per well in DMEM media with 2% FBS, 1% Penicillin/Streptomicin, 2 mM L-Glutamine, 1 mM Na Pyruvate and 25 mM HEPES. After 72 h incubation at 37° C. in presence of 5% CO2, the plates were fixed and stained with 4% formaldehyde and 2 μM Draq5 for 3 hours at room temperature. The plates were imaged on a Perkin Elmer Opera high-content imaging system using a 20× air objective. Images were analyzed using the Acapella building blocks system (Perkin Elmer). The image analysis algorithm first identified the H9C2 nuclei followed by demarcation of the cytoplasm and identification of intracellular amastigotes. This algorithm reported mean number of parasites per H9C2 cell, the percentage of infected H9C2 cells and the total number of H9C2 cells.

The test system of a further data set is Trypanosoma cruzi. Kind of data set: Trypanosoma cruzi intracellular assay (Assay 2). The following applies: infected H9C2 rat cardiomyocytes, 72 h incubation, read-out: pEC50 value against Trypanosoma cruzi (converted). In kind it is cell-based. The procedure: as §1
Data set [1] is described as follows: Solubility assay, ChemiLuminescent Nitrogen Detection (CLND) (Assay 4). The data set is classed as physicochemical. The following applies: phosphate buffered saline (PBS) pH 7.4, aqueous buffer, kinetic from dmso stock, PBS pH 7.4, from 10 mM DMSO stock, 1 h at room temperature. On the procedure:
Assay 4. Solubility Assay—ChemiLuminescent Nitrogen Detection (CLND) I. Compounds A 10 mM DMSO stock solution of the compound was prepared. Solvents and Buffers Organic solvents of HPLC grade were used. Ultra pure water (Milli-Q grade) was used. Buffers were prepared with ultra pure water and filtered using 0.45μ cameo filters. Aqueous Buffer Solution: Phosphate Buffer Saline (PBS) @ pH 7.4 was prepared from Sigma dry powder packs, P-3813. Each one was diluted to 1 liter with deionised water. The pH was checked before the solution was used II. Procedures. • a) DMSO concentration was measured. DMSO blanks and ondansetron and caffeine standards were added to the plate (column 12, A, B, C, & D for the blanks and E, F, G, & H for the standards). Plates were covered with foil. When the UV and CLND detectors baselines appeared to be stable, the CLND was zeroed. • b) Once DMSO concentration measurements were complete, a filtration plate was prepared from each parent plate by diluting 5 μl of the 10 mM DMSO stock solution to […] with pH7.4 PBS. • c) After the plates were prepared, they were covered with a plate lid and left to incubate for 1 h at room temperature. • d) Sample was filtered using MILLIPORE MultiScreen Solubility (MSSLBPC10) Filtration Plates, to NUNC V well plates. […]

For `O=C(Nc1ccc(F)c(-c2ccn3c(N4CCOCC4)cnc3n2)c1)N1CCCC1` [Example 4, N-(4-fluoro-3-(3-morpholinoimidazo[1,2-a]pyrimidin-7-yl)phenyl)pyrrolidine-1-carboxamide], in the data set on RnH9c2 cells, the EC50 at 72 h was above 50100 nM. The EC50 in the data set on Trypanosoma cruzi is 39.8 nM. In data set [1], the solubility at 1 h is above 444 µM.
